{
  "source": "patent US10081602B2",
  "about": "“Opioid agonists and uses thereof” (Nektar Therapeutics, priority 2013, dated 2018)",
  "key": {"[1]": {"molecular_target": "human mu (MOR) opioid receptor (Homo sapiens (Human), UniProt P35372)", "test": "Radioligand competition binding assay, mu opioid receptor", "details": "[3H]Naloxone; for inhibition at 10 µM: read-out: Mu receptor % inhibition at single concentration", "method": "The binding affinities of certain compounds of the present invention were evaluated using radioligand binding assays in membranes prepared from CHO-K1 cells expressing recombinant human kappa (KOR) or mu (MOR) opioid receptors.\nCompetition binding experiments were conducted by incubating membrane protein to equilibrium in triplicate in the presence of a fixed concentration of radioligand and increasing concentrations of test compound for evaluation of binding to KOR or single concentration (10 μM) of test compound for evaluation of binding to MOR in 101 μL final volume. The radioligands used were specific for each receptor type, and the assay conditions are described in Table 1. Following incubations, the membranes were rapidly filtered through GF/B filter plate (presoaked with 0.5% polyethyleneimine), washed five times with cold 50 mM Tris-HCl, pH 7.5, and the bound radioactivity was then measured by liquid scintillation counting. Non-specific binding was measured in the presence of excess ligand; this value was subtracted from the total binding to yield the specific binding at each test concentration.\nKi (affinity of test compound) was obtained using the Cheng Prusoff correction using experimental Kd (affinity of radioligand) values that were previously determined under these assay conditions. For MOR binding, compounds were tested at one concentration, 10 μM, to evaluate its ability to inhibit specific radioligand binding. The values are expressed as percent inhibition of specific binding and greater than 50% inhibition of binding was considered to be significant.\nWith respect to determining MOR binding, an approach similar to one used for KOR binding was used."}, "[2]": {"tested_on": "acetic acid-induced writhing (visceral pain) in mice", "test": "Acetic acid writhing (AAW) analgesic assay", "type": "in vivo", "method": "An analgesic assay was used to determine whether a given compound can reduce and/or prevent visceral pain in mice. The assay utilizes Swiss Albino or CD-1 male mice (5-10 mice per group), each mouse being approximately 0.015-0.030 kg on the study day. Mice were treated according to standard protocols.\nThe animal was given an intraperitoneal (IP) injection of an irritant (acetic acid) that induces “writhing” which may include: contractions of the abdomen, twisting and turning of the trunk, arching of the back and the extension of the hindlimbs. Mice are given a single IP injection (0.1 mL/10 g bodyweight) of a 0.5% acetic acid solution. After the injection the animals were returned to their observation enclosure and their behavior was observed. Contractions were counted between 0 and 20 minutes after the injection. The animals were used once. In certain instances, the test articles were administered at multiple doses to determine a dose response curve.\nTable 4 provides the results for certain compounds of the present invention that were administered subcutaneously. Table 5 provides the results for certain compounds of the present invention that were administered orally."}, "[3]": {"molecular_target": "MOR (Homo sapiens (Human), UniProt P35372)", "test": "cAMP accumulation assay in forskolin-stimulated CHO-K1 cells stably expressing MOR", "type": "cell-based", "method": "Inhibition of cAMP accumulation by select compounds was measured in forskolin-stimulated CHO-K1 cells stably expressing KOR. CHO-K1 cells stably expressing KOR were harvested using Invitrogen Cell Dissociation Buffer, and then centrifuged at 1200 rpm for five minutes. The supernatant was aspirated and cells were resuspended in assay buffer to a density of 4×10^5 cells/mL. 25 μL of cells were added into a white half-area 96 well plate. Fourteen point serial dilutions of test compounds were carried out in assay buffer (PBS with 0.5 mM IBMX). Ketazocine was used as a positive control for each assay. 12.5 μL of compound was added to the cells in duplicate for each test concentration. The cells were then stimulated with 12.5 μL forskolin at a final concentration 20 μM. Cells were incubated for 45 minutes in a 37° C., 5% CO2 water jacketed incubator. CisBio HTRF cAMP assay reagent was used for cAMP quantitation. Two hours after substrate addition, signal at 665/615 nm was measured using the Perkin Elmer Victor X4 HTRF reader. Data analysis was done using GraphPad Prism, sigmoidal dose-response (variable slope) curve fitting.\nUsing a similar approach, inhibition of cAMP accumulation by select compounds was also determined in forskolin-simulated CHO-K1 cells stably expressing MOR (wherein for this assay a density of 8×10^5 cells/mL was used and the positive control was DAMGO). […]"}},
  "data": [
    {"smiles": "C[C@H]1[C@H]2C(=O)c3ccc(O)cc3[C@]1(C)CCN2CC1CC1", "note": "[Ketazocine, (2S,6R,11R)-3-(cyclopropylmethyl)-8-hydroxy-6,11-dimethyl-3,4,5,6-tetrahydro-2,6-methanobenzo[d]azocin-1(2H)-one, reference compound]", "values": [
      {"measurement": "inhibition at 10 µM", "setting": "[1]", "value": 99.2, "unit": "%"},
      {"measurement": "AAW % Efficacy", "setting": "[2]; oral, 0.1 mg/kg", "value": 12.8, "unit": "%"},
      {"measurement": "AAW % Efficacy", "setting": "[2]; oral, 1 mg/kg", "value": 34.5, "unit": "%"},
      {"measurement": "AAW % Efficacy", "setting": "[2]; oral, 10 mg/kg", "value": 58.9, "unit": "%"},
      {"measurement": "AAW % Efficacy", "setting": "[2]; oral, 100 mg/kg", "value": 100.0, "unit": "%"},
      {"measurement": "AAW % Efficacy", "setting": "[2]; subcutaneous, 0.01 mg/kg", "value": 10.57, "unit": "%"},
      {"measurement": "AAW % Efficacy", "setting": "[2]; subcutaneous, 0.1 mg/kg", "value": 50.03, "unit": "%"},
      {"measurement": "AAW % Efficacy", "setting": "[2]; subcutaneous, 1 mg/kg", "value": 100.00, "unit": "%"}
    ]},
    {"smiles": "COCCOCCOCCOCCOCCO[C@@H]1c2ccc(O)cc2[C@]2(C)CCN(CC3CC3)[C@H]1[C@@H]2C", "note": "[Example 25, (1R,2S,6R,11R)-1-(2,5,8,11,14-pentaoxahexadecan-16-yloxy)-3-(cyclopropylmethyl)-6,11-dimethyl-1,2,3,4,5,6-hexahydro-2,6-methanobenzo[d]azocin-8-ol]", "values": [
      {"measurement": "Ki", "setting": "[1]; CHO-K1 membranes", "value": 3.92, "unit": "µM"},
      {"measurement": "EC50", "setting": "[3]", "value": 1.21, "unit": "µM"}
    ]},
    {"smiles": "COCCOCCOCCOc1ccc2c(c1)[C@]1(C)CCN(CC3CC3)[C@H](C2=O)[C@@H]1C", "note": "[Example 4, (2S,6R,11R)-3-(Cyclopropylmethyl)-8-{2-[2-(2-methoxyethoxy)ethoxy]ethoxy}-6,11-dimethyl-3,4,5,6-tetrahydro-2,6-methano-3-benzazocin-1(2H)-One]", "values": [
      {"measurement": "inhibition at 10 µM", "setting": "[1]", "value": 89.2, "unit": "%"},
      {"measurement": "AAW % Efficacy", "setting": "[2]; oral, 200 mg/kg", "value": 3.8, "unit": "%"},
      {"measurement": "AAW % Efficacy", "setting": "[2]; subcutaneous, 3 mg/kg", "value": 0.0, "unit": "%"},
      {"measurement": "AAW % Efficacy", "setting": "[2]; subcutaneous, 10 mg/kg", "value": 39.7, "unit": "%"},
      {"measurement": "AAW % Efficacy", "setting": "[2]; subcutaneous, 30 mg/kg", "value": 100.0, "unit": "%"}
    ]},
    {"smiles": "COCCOCCOCCOCCOCCNc1ccc2c(c1)[C@]1(C)CCN(CC3CC3)[C@H](C2=O)[C@@H]1C", "note": "[Example 2, (2S,6R,11R)-3-(Cyclopropylmethyl)-6,11-dimethyl-8-(2,5,8,11,14-pentaoxahexadecan-16-ylamino)-3,4,5,6-tetrahydro-2,6-methano-3-benzazocin-1(2H)-One]", "values": [
      {"measurement": "inhibition at 10 µM", "setting": "[1]", "value": 85.5, "unit": "%"}
    ]}
  ]
}
